ChEMBL document CHEMBL4699517 (Bioorg Med Chem Lett, 2020)
Calls of active or inactive are those of the source. The rule behind the calls is not given here.

Tests used:
Format in all cases: cell-based
[1] = biological target: Phosphatidylinositol 4,5-bisphosphate 3-kinase catalytic subunit gamma isoform (Homo sapiens) (UniProt P48736); test: Inhibition of PI3Kgamma in human MOLT-4 cells assessed as inhibition of cell viability at 100 nM after 72 hrs by CellTiter-Glo luminescent assay
[2] = biological target: Phosphatidylinositol 4,5-bisphosphate 3-kinase catalytic subunit gamma isoform (Homo sapiens) (UniProt P48736); test: Inhibition of PI3Kgamma in human RPMI-8226 cells assessed as inhibition of cell viability at 100 nM after 72 hrs by CellTiter-Glo luminescent assay
[3] = biological target: Phosphatidylinositol 4,5-bisphosphate 3-kinase catalytic subunit gamma isoform (Homo sapiens) (UniProt P48736); test: Inhibition of PI3Kgamma in human LCL-1 cells assessed as inhibition of cell viability at 100 nM after 72 hrs by CellTiter-Glo luminescent assay
[4] = biological target: Phosphatidylinositol 4,5-bisphosphate 3-kinase catalytic subunit gamma isoform (Homo sapiens) (UniProt P48736); test: Inhibition of PI3Kgamma in human Raji cells assessed as inhibition of cell viability at 100 nM after 72 hrs by CellTiter-Glo luminescence assay
[5] = biological target: Phosphatidylinositol 4,5-bisphosphate 3-kinase catalytic subunit gamma isoform (Homo sapiens) (UniProt P48736); test: Inhibition of PI3Kgamma in human SUDHL-10 cells assessed as inhibition of cell viability at 100 nM after 72 hrs by CellTiter-Glo luminescent assay; conditions: SU-DHL-10
[6] = biological target: Phosphatidylinositol 4,5-bisphosphate 3-kinase catalytic subunit gamma isoform (Homo sapiens) (UniProt P48736); test: Inhibition of PI3Kgamma in human SUDHL-6 cells assessed as inhibition of cell viability at 100 nM after 72 hrs by CellTiter-Glo luminescent assay; conditions: SU-DHL-6

Sequence of Phosphatidylinositol 4,5-bisphosphate 3-kinase catalytic subunit gamma isoform (Homo sapiens) (P48736 whole entry, looked up, canonical isoform): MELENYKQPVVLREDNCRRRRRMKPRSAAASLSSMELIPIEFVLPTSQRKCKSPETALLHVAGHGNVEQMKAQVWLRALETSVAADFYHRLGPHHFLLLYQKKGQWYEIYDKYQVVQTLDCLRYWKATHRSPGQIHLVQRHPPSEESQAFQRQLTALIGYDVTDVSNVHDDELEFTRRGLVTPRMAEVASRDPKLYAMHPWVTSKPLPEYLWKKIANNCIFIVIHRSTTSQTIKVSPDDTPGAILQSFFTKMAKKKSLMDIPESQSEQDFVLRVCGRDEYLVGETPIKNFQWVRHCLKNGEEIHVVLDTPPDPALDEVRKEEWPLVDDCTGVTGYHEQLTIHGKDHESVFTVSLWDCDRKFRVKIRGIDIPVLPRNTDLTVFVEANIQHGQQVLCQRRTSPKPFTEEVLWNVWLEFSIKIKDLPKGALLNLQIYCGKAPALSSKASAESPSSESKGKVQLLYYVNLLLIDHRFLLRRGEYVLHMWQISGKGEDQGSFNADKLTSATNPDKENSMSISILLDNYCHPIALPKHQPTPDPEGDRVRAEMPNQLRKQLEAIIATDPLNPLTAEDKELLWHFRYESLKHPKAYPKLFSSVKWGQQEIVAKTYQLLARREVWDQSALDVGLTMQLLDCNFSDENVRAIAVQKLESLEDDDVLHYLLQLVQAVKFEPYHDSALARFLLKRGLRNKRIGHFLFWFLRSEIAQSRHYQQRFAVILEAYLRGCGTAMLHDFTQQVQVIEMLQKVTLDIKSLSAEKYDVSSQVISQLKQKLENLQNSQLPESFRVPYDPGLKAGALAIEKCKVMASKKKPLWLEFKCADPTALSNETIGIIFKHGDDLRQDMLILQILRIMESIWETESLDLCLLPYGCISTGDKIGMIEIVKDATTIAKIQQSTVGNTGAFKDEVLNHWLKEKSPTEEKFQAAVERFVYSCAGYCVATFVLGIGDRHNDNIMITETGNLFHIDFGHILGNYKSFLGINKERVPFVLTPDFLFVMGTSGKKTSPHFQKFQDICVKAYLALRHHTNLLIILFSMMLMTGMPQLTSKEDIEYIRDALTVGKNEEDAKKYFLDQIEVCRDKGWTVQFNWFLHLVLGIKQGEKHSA

| Structure (SMILES) | inhibition [1] | inhibition [2] | inhibition [3] | inhibition [4] | inhibition [5] | inhibition [6] |
| --- | --- | --- | --- | --- | --- | --- |
| COC(=O)[C@@]12OC[C@]34[C@H]([C@@H](O)[C@@H]1O)[C@@]1(C)CC(=O)C(OC(=O)C[C@H](C)NC(=O)C[C@H](C)N)=C(C)[C@@H]1C[C@H]3OC(=O)[C@H](OC(=O)C=C(C)C)[C@@H]24 | Active | Active | Active | Active | Active | Active |
| COC(=O)[C@@]12OC[C@]34[C@H]([C@@H](O)[C@@H]1O)[C@@]1(C)CC(=O)C(OC(=O)[C@H](C)NC(=O)[C@H](C)N)=C(C)[C@@H]1C[C@H]3OC(=O)[C@H](OC(=O)C=C(C)C)[C@@H]24 | inactive | inactive | inactive | inactive | inactive | inactive |
| COC(=O)[C@@]12OC[C@]34[C@H]([C@@H](O)[C@@H]1O)[C@@]1(C)CC(=O)C(OC(=O)CNC(=O)CN)=C(C)[C@@H]1C[C@H]3OC(=O)[C@H](OC(=O)C=C(C)C)[C@@H]24 | Active | Active | Active | Active | Active | Active |
| COC(=O)[C@@]12OC[C@]34[C@H]([C@@H](O)[C@@H]1O)[C@@]1(C)CC(=O)C(OC(=O)[C@@H]5CC(F)(F)CN5)=C(C)[C@@H]1C[C@H]3OC(=O)[C@H](OC(=O)C=C(C)C)[C@@H]24 | Active | Active | Active | Active | Active | Active |
| COC(=O)[C@@]12OC[C@]34[C@H]([C@@H](O)[C@@H]1O)[C@@]1(C)CC(=O)C(OCC(=O)NCCN)=C(C)[C@@H]1C[C@H]3OC(=O)[C@H](OC(=O)C=C(C)C)[C@@H]24 | Active | Active | Active | Active | Active | Active |
| COC(=O)[C@@]12OC[C@]34[C@H]([C@@H](O)[C@@H]1O)[C@@]1(C)CC(=O)C(OC(=O)[C@@H](N)CC(C)C)=C(C)[C@@H]1C[C@H]3OC(=O)[C@H](OC(=O)C=C(C)C)[C@@H]24 | – | – | – | Active | – | – |
| COC(=O)COC1=C(C)[C@@H]2C[C@H]3OC(=O)[C@H](OC(=O)C=C(C)C)[C@H]4[C@]5(C(=O)OC)OC[C@]34[C@H]([C@@H](O)[C@@H]5O)[C@@]2(C)CC1=O | – | – | – | inactive | – | – |
| COC(=O)[C@@]12OC[C@]34[C@H]([C@@H](O)[C@@H]1O)[C@@]1(C)CC(=O)C(OCC(=O)NC(Cc5ccccc5)C(=O)O)=C(C)[C@@H]1C[C@H]3OC(=O)[C@H](OC(=O)C=C(C)C)[C@@H]24 (stereo partly drawn) | – | – | – | inactive | – | – |
| COC(=O)[C@@]12OC[C@]34[C@H]([C@@H](O)[C@@H]1O)[C@@]1(C)CC(=O)C(OC(=O)[C@@H]5CCCN5)=C(C)[C@@H]1C[C@H]3OC(=O)[C@H](OC(=O)C=C(C)C)[C@@H]24 | – | – | – | Active | – | – |
| COC(=O)[C@@]12OC[C@]34[C@H]([C@@H](O)[C@@H]1O)[C@@]1(C)CC(=O)C(OCC(=O)NCCC(=O)OC(C)(C)C)=C(C)[C@@H]1C[C@H]3OC(=O)[C@H](OC(=O)C=C(C)C)[C@@H]24 | – | – | – | inactive | – | – |
| COC(=O)[C@@]12OC[C@]34[C@H]([C@@H](O)[C@@H]1O)[C@@]1(C)CC(=O)C(OC(=O)C[C@H](C)NS(C)(=O)=O)=C(C)[C@@H]1C[C@H]3OC(=O)[C@H](OC(=O)C=C(C)C)[C@@H]24 | – | – | – | inactive | – | – |
| COC(=O)[C@@]12OC[C@]34[C@H]([C@@H](O)[C@@H]1O)[C@@]1(C)CC(=O)C(OC(=O)[C@@H]5CCCN5C(=O)OC(C)(C)C)=C(C)[C@@H]1C[C@H]3OC(=O)[C@H](OC(=O)C=C(C)C)[C@@H]24 | – | – | – | Active | – | – |
| COC(=O)[C@@]12OC[C@]34[C@H]([C@@H](O)[C@@H]1O)[C@@]1(C)CC(=O)C(OC(=O)C[C@@H](N)C(C)C)=C(C)[C@@H]1C[C@H]3OC(=O)[C@H](OC(=O)C=C(C)C)[C@@H]24 | – | – | – | inactive | – | – |
